Source: patent US10239918B2, “Cahuitamycins and methods of making and using the same” (THE REGENTS OF THE UNIVERSITY OF MICHIGAN, priority 2015, dated 2019)
Read-outs that look alike come from different tables or passages of the source.

Key:
[1] = reference value used for the calculation; cited from earlier work
[2] = test system: A. baumanii biofilm; assay: confocal microscope imaging of biofilm on glass plate (SYTO 9 / propidium iodide); type: cell-based, Acinetobacter baumannii; details: glass plate treated with 240 nM
Method: (§1) Next, the specific stage of inhibition during biofilm formation was probed as well as the extent of inhibition through a flow cell assay. […] In addition, confocal microscope imaging analysis of the A. baumanii biofilm was conducted. In this assay, the biofilm was developed on a glass plate and left untreated as a control or treated with only 240 nM of 1 and 3. After treatment with STYO® 9 stain and propidium iodide (PI) the biofilm structure was observed.

[3] = test system: A. baumannii growth; assay: inhibition of A. baumannii growth; type: cell-based, Acinetobacter baumannii; details: for effect on bacterial growth: A. baumannii, apo form
[4] = test system: A. baumannii ATCC 17978 biofilm; assay: flow cell biofilm assay; type: cell-based, Acinetobacter baumannii ATCC 17978; details: 7.5 μg/ml in flow media
Method: as §1
Biofilms were formed by A. baumannii ATCC 17978 in flow chambers at room temperature. Images were taken at 1 h, 6 h and 24 h (by using a 60× lens) after inoculation. A flow cell biofilm was achieved by using a flow cell chamber (ACCFL0001, Life Science Incorporated, Greensboro, N.C.). Briefly, overnight cultures of A. baumannii ATCC 17978 grown in MHII broth at 37° C. were diluted 100 fold with fresh MHII broth. 1 ml of dilution was injected into a flow cell chamber and allowed to settle one hour for attaching of bacteria followed by initiation media flow. Flow media was 10% MHII broth (control), or 10% MHII broth with 7.5 μg/ml of desferoxamine, or MHII broth with 7.5 μg/ml of cahuitamycins A. The flow rate was 4 ml/hr. Micrographs of the biofilm were acquired at 1 h, 6 h and 24 h by using an Olympus IX70 microscope with 60× lens

[5] = test system: A. baumannii biofilm formation; assay: static biofilm assay, crystal violet staining and optical density; type: cell-based, Acinetobacter baumannii ATCC 17978; details: for effect on biofilm formation: apo form; for IC50: Acinetobacter baumannii, read-out: IC50, inhibition of biofilm formation
From the text: In an effort to discover new antibiotics, a marine microbial-derived NPE library was screened to identify biofilm inhibitors in A. baumannii. Natural products accounts for the majority of currently marketed drugs,^10 and the marine environment represents a potential new source of unique chemical entities.^11 A crystal violet based high throughput assay was used to query against a library of 9,831 marine microbial derived NPEs in order to identify the extracts inhibiting biofilm formation as primary screen. The active extracts obtained in primary high-throughput screening were further prioritized by setting the inhibition threshold to 50% followed by a dose response assay, yielding 31 active NPEs.
Primarily, the static biofilm assay using 1-3 was conducted using crystal violet staining followed by optical density measurements (FIG. 3). […] However, loss of inhibition of biofilm over time can be directly attributed to the metal-complexed cahuitamycins.
A static biofilm assay was developed from a previously reported method.^10 The biofilm assay measures the adhesion of bacteria to the surface of polystyrene 384 well microtiter plates. Adherent cells are detected by staining with Crystal Violet and subsequent washing to remove nonadherent planktonic cells. Inhibitors of biofilm formation prevent the bacteria from adhering to the surface of the microtiter plate and reduce the amount of Crystal Violet retained after washing. Assay quantification was performed by OD600 absorbance measurement of the Crystal Violet stained biofilm. The assay was optimized for plate surface treatment, time, temperature, media, media concentration, Crystal Violet concentration, wash method, inhibitor sensitivity, and culture inoculum preparation.
The A. baumannii test strain (ATCC 17978) was maintained as a frozen stock at −80° C. in 20% glycerol. On the morning of the assay, 5 ml of Mueller Hinton II cation adjusted media (Becton Dickinson cat. 212322) was inoculated and grown at 37° C., 180 rpm shaking for 4-6 h. The culture was then diluted 1:50 and incubated an additional 2 h. The resulting cells were washed four times by centrifugation and resuspension of the pellet in media was performed to remove any metabolites or cell signaling factors. The assay inoculum was prepared by diluting the cells to 0.008 OD600 in 10% Mueller Hinton II cation adjusted media (diluted in 18 ohm deionized water). The assay plates (Corning cat. 3680, 384 well non-treated polystyrene) were prepared by dispensing 20 μl of 10% Mueller Hinton II cation adjusted media into columns 1-22 using a Multidrop Combi dispenser (ThermoFisher). The natural product extract samples were added as 0.2 μl of 15 mg/ml stocks in DMSO using a Biomek FX high density pintool (Beckman Coulter). Column 1 and 2 contained DMSO without natural product extracts and served as the negative control. The positive control was added to column 23 and 24 as 20 μl of 40 μM Baicalein (Sigma-Aldrich cat. 11712). The bacterial cells were added to the entire plate in 20 μl of the prepared inoculum using a Multidrop Combi dispenser (ThermoFisher). The resulting assay contained 40 μl of 10% Mueller Hinton II cation adjusted media with 0.004 OD600 bacterial cells, 0.5% DMSO, and 75 μg/ml natural product extract. The assay plates were incubated at 30° C. for 20 h, stationary, in a humidified incubator. The biofilm was stained by adding 10 μl of filtered 1% Crystal Violet and incubating for 30 minutes at room temperature. Excess Crystal Violet and nonadherent planktonic cells were removed by washing three times with 150 μl of PBS using an ELX405 plate washer (Biotek). The wash program used a low velocity dispense rate and an aspiration height of 3.8 mm; about 10 μl of PBS remained in the well after washing. The Crystal Violet stained biofilm was solubilized by the addition of 50 μl of 100% ethanol and allowed to develop overnight. Quantification was performed by measuring the OD600 absorbance using a Pherastar plate reader (BMG). […]

[6] = competition titrations with EDTA to determine iron-binding affinity (pFeIII); type: physicochemical; details: competition titration of Fe-cahuitamycin complex with EDTA, Hepes buffer pH 7.4, UV-vis; three individual titrations
Method: Determination of pFe^III for cahuitamycins was carried out as reported by Abergel et al. J. Am. […] Briefly, purified Fe-cahuitamycins, prepared as described above, was dissolved in Hepes buffer (10 mM Hepes, 0.1 M KCl, pH 7.4) and five different concentration ranges of ETDA were added from EDTA stock solutions also prepared in HEPES buffer. Each reaction consisted of a total volume of 0.25 mL, a final concentration of 0.1 mM Fe-cahuitamycins and a range of 5-fold-8000-fold EDTA (relative to Fe-cahuitamycins) in Hepes buffer. The reaction was allowed to equilibrate at room temperature for at least 24 h, and UV-visible spectra were subsequently recorded. The composite spectra contain contributions from both Fe-EDTA and Fe-cahuitamycins. The ε of both species as a function of λ, were determined in Hepes buffer and used to deconvolute the spectra. The contribution of Fe-cahuitamycins was subtracted from the composite spectra using the 435 nm absorption band and the ε of both Fe-cahuitamycins and Fe-EDTA were used to quantify the proportion of each species in solution. Concentrations of apo-EDTA and apo-cahuitamycins were calculated by subtracting [Fe-EDTA] (or [Fe-cahuitamycins]) from total initial EDTA (or Fe cahuitamycins). The log [EDTA]/[cahuitamycins] was plotted against log [Fe-EDTA]/[Fe-cahuitamycins] and the data were fit to the following equation, which has been derived by Abergel et al., J. Am.

[7] = compound tested in iron-complexed form
[8] = static biofilm assay, A. baumannii

In the case of `O=C(O)CN(CCN(CC(=O)O)CC(=O)O)CC(=O)O` [EDTA], the “pFe^III (known stability constants for EDTA)” value [1] is listed as 23.42.

For `O=CN(O)CCC[C@@H](NC(=O)[C@H](CO)NC(=O)[C@@H]1COC(c2ccccc2O)=N1)C(=O)N1NCCC[C@@H]1C(=O)NCCC(=O)O` [compound 1, Cahuitamycin A], the “biofilm thickness compared with the control” value [2] was “much thinner biofilm”, the “total biomass compared with the control” value [2] was “significantly less total biomass” and the “total biomass of biofilm” value [2] was 0.18 μm^3. The “impact on growth, iron-complexed form” value [3, 7] was “almost no impact”, the “biofilm state in flow cell after 6 h of supplementation” value [4] was “only a few micro colonies” and the “biofilm state in flow cell after 24 h of supplementation” value [4] was “larger micro colonies and initiation of biofilm formation”. The “impact on biofilm formation, iron-complexed form” value [5, 7] was “almost no impact”, the “effect on biofilm formation” value [5, 8] was “able to inhibit” and the “pFe^III” value [6] was 18.34±0.16.

In the case of `O=CN(O)CCC[C@@H](NC(=O)[C@H](CO)NC(=O)[C@H](CO)NC(=O)c1ccccc1O)C(=O)N1NCCC[C@@H]1C(=O)NCCC(=O)O` [compound 2, Cahuitamycin B], the “effect on bacterial growth” value [3] is reported as “no effects”, the “effect on biofilm formation” value [5, 8] is reported as “no effects” and the “pFe^III” value [6] is reported as 20.42±0.09.

For `Cc1cccc(O)c1C1=N[C@H](C(=O)N[C@@H](CO)C(=O)N[C@H](CCCN(O)C=O)C(=O)N2NCCC[C@@H]2C(=O)NCCC(=O)O)CO1` [compound 3, Cahuitamycin C], the “biofilm thickness compared with the control” value [2] was “much thinner biofilm”, the “total biomass compared with the control” value [2] was “significantly less total biomass” and the “total biomass of biofilm” value [2] was 0.10 μm^3. For the same compound, the “effect on bacterial growth” value [3] was “limited effect”, the IC50 [5, 8] was 14.5 µM and the “pFe^III” value [6] was 17.52±0.12.

With `Cc1ccc(O)c(C2=N[C@H](C(=O)N[C@@H](CO)C(=O)N[C@H](CCCN(O)C=O)C(=O)N3NCCC[C@@H]3C(=O)NCCC(=O)O)CO2)c1` [compound 4, Cahuitamycin D] the IC50 [5, 8] was 8.4 µM, the “potency as biofilm inhibitor compared to 3 (cahuitamycin C)” value ([5]; static biofilm assay) was “almost twice the potency” and the “potency as biofilm inhibitor compared to 3 (cahuitamycin C)” value ([5]; static biofilm assay, listed as cahuitamycin analog D) was “twice as active”.

In the case of `O=CN(O)CCC[C@@H](NC(=O)[C@H](CO)NC(=O)[C@H](CO)NC(=O)c1ccccc1O)C(=O)N[C@H](CCCNO)C(=O)NCCC(=O)O` [compound 5, Cahuitamycin E], the IC50 [5] is reported as 10.5 µM.

In the case of `CC(=O)N(O)CCCCCNC(=O)CCC(=O)N(O)CCCCCNC(=O)CCC(=O)N(O)CCCCCN` [desferoxamine, reference compound], the “biofilm state in flow cell after 6 h of supplementation” value [4] is reported as “formation of a robust biofilm” and the “biofilm state in flow cell after 24 h of supplementation” value [4] is reported as “biofilm became thicker”.
